Source: ChEMBL document CHEMBL1201862, “PubChem BioAssay data set” (2004)
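Method: 48-hour compound exposure of cells in 96-well plates, five concentrations, linear interpolation of endpoints. GI50 marks 50% less growth.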 Activity calls are given as the source filed them. Cut-off read from the data, not from the text of the source: active = GI50 up to about 1.1 µM and inactive = higher.

Columns and labels:
Test in all cases: NCI anticancer screen, dose series, 48 h
SNB-78 = tested on: SNB-78
M19-MEL = tested on: M19-MEL
DMS-273 = tested on: DMS-273
RXF 631 = tested on: RXF 631
MDA-MB-231 = tested on: MDA-MB-231
PC-3 = tested on: PC-3
BT-549 = tested on: BT-549
MDA-N = tested on: MDA-N
786-0 = tested on: 786-0

Measured: GI50

O=NN1C(c2ccccc2)CNC(=O)CC1c1ccccc1 (configuration not stated)
inactive: SNB-78 > 91.4 µM | M19-MEL 50.1 µM | DMS-273 27.4 µM

O=c1[nH]c(=O)n(C2CC(O)C(CO)O2)cc1C#Cc1cc(C(F)(F)F)cc(C(F)(F)F)c1 (configuration not stated)
inactive: SNB-78 50.7 µM | M19-MEL > 31.3 µM | RXF 631 21.3 µM

O=c1cc(-c2nc3ccccc3[nH]2)[nH]c2nc(-c3nc4ccccc4[nH]3)cc(-c3ccc(Cl)cc3)c12
inactive: MDA-MB-231 15.8 µM | PC-3 19.5 µM | BT-549 35.9 µM | MDA-N 20.5 µM

NC12CCC(CC1=O)C2 (configuration not stated)
inactive: MDA-MB-231 > 100 µM | PC-3 > 100 µM | MDA-N > 100 µM

CCOC(=O)C(C(C)=O)C1CC=CC1 (configuration not stated)
inactive: SNB-78 > 100 µM | RXF 631 > 100 µM | DMS-273 > 100 µM | 786-0 > 100 µM

COc1ccc(C[C@H](N)C(=O)N2C[C@H](CO)C[C@H](n3cnc4c(N(C)C)ncnc43)C2)cc1
inactive: M19-MEL > 100 µM | DMS-273 > 100 µM

CC(=O)N1N=C(c2ccc3ccccc3c2O)CC1c1cccs1 (configuration not stated)
inactive: MDA-MB-231 20.6 µM | PC-3 11.1 µM | BT-549 19.5 µM | MDA-N 20.2 µM

O=C1CCCCN1
inactive: SNB-78 > 1120 µM | M19-MEL > 403 µM | DMS-273 > 1120 µM

CC(C)(C)[Si](C)(C)OC[C@H](/C=C\CCCC(=O)O)NC1(c2ccccc2)c2ccccc2-c2ccccc21
inactive: MDA-MB-231 14.3 µM | PC-3 6.52 µM | BT-549 24.5 µM | MDA-N 20.6 µM | 786-0 14 µM

O=C1CSC(C(/N=N/c2ccc(Cl)cc2)c2nc3ccccc3[nH]2)=N1 (configuration not stated)
inactive: M19-MEL 85.7 µM | DMS-273 60.4 µM

COc1ccc(-c2c3c(nc4nc(SC)nc(SC)c24)CCCC3)cc1OC
inactive: MDA-MB-231 40.6 µM | PC-3 60 µM | BT-549 > 100 µM | MDA-N 29.9 µM
